Results: ChEMBL document CHEMBL1130021 (J Med Chem, 1997)
Counter-ions that a name gives are not always drawn.

Tested on: MCF7
Test: Inhibition of estrogen-induced proliferation in human MCF-7 breast cancer cells
Assay type: functional, cell-based

In order of rising IC50:
1. Cl.Oc1ccc(-c2sc3cc(O)ccc3c2Oc2ccc(OCCN3CCCCC3)cc2)cc1  0.05 nM
2. Oc1ccc(-c2sc3cc(O)ccc3c2Nc2ccc(OCCN3CCCCC3)cc2)cc1  0.1 nM
3. Oc1ccc(-c2sc3cc(O)ccc3c2Cc2ccc(OCCN3CCCCC3)cc2)cc1  0.19 nM
4. Oc1ccc(-c2sc3cc(O)ccc3c2Sc2ccc(OCCN3CCCCC3)cc2)cc1  0.28 nM
5. O=C(c1ccc(OCCN2CCCCC2)cc1)c1c(-c2ccc(O)cc2)sc2cc(O)ccc12 [RALOXIFENE HYDROCHLORIDE]  0.4 nM
6. C[C@]12CC[C@@H]3c4ccc(O)cc4C[C@@H](CCCCCCCCC[S+]([O-])CCCC(F)(F)C(F)(F)F)[C@H]3[C@@H]1CC[C@@H]2O (stereo partly drawn) [FULVESTRANT]  0.49 nM
7. CC/C(=C(\c1ccccc1)c1ccc(OCCN(C)C)cc1)c1ccccc1 [TAMOXIFEN]  481 nM

Tested on: Rattus norvegicus
Test: Percent reduction in total serum Cholesterol level at 1.0 mg/kg oral dose
Assay type: functional

For Cl.Oc1ccc(-c2sc3cc(O)ccc3c2Oc2ccc(OCCN3CCCCC3)cc2)cc1, the Reduction was 45%.
